Columns and labels:
OE33 xenografts = assay: Growth of Barrett's esophageal adenocarcinoma (BEAC) OE33 xenografts in nude mice; type: in vivo; conditions: 75 mg/kg/day orogastric feeding, 8 days, versus vehicle control, listed as pro-2-ME2
Procedure: We injected ˜2.0×10^6 OE33 cells subcutaneously into the left hind leg flank of each nude mice […] for the development of tumor. The mice were divided into two groups (two mice per group) with a control group and Pro-2-ME2 treatment group. After forming palpable tumors, the nude mice bearing xenografts of OE33 cells were given daily pro-2-ME2 doses (75 mg/kg/day) by orogastric feeding or vehicle (control). Pro-2-ME2 was dissolved in 500 μl of saline water. We used 500 μl of saline water as a vehicle control. Tumor growth was monitored for 8 days by measuring two perpendicular diameters twice weekly. Tumor volume was calculated according to the formula V=a×b^2/2, where a and b are the largest and smallest diameters, respectively.

[1] = Rat plasma pharmacokinetics of 2-ME2 after intravenous and oral dosing (cannulated rat model); type: in vivo, Sprague Dawley rats; conditions: for Bioavailability: AUC through 480 minutes
Procedure: The main compound of the present invention (2ME2-PD) and the native compound (8R,9S,13S,14S,17S)-2-methoxy-13-methyl-7,8,9,11,12,13,14,15,16,17-decahydro-6H-cyclopenta[a]phenanthren-17-ol (2-ME2) were dissolved independently in 0.1 M Captisol® at concentrations between 10 mg/mL and 21 mg/mL. The solutions were sterile filtered through 0.2 micron filters prior to use.
Animal studies were approved and conducted in accordance with the guidelines of the Institutional Animal Care and Use Committee. A cannulated rat model was used to study the intravenous (iv) and oral absorption 2-ME2 and 2-ME2-PD.
Sprague Dawley rats (male, 250-300 gram, Charles River Laboratories) were implanted with carotid artery, and jugular and/or femoral vein catheters. These studies were automated with the animals connected to the Culex Automated Pharmacology System allowing for direct comparison of pharmacokinetic behavior between the orally and iv administered compounds in the same animal. Following surgery, the animals were connected to the Culex and allowed to recover and acclimate. Fasted animals were dosed intravenously and orally with solutions of 2-ME2-PD in 0.1 M Captisol® (CyDex Pharmaceuticals, Inc) and 2-ME2 parent in 0.2 M HP-13-CD (Sigma-Aldrich).
Oral doses were given via gavage to the animal under light anesthesia. Blood was sampled at times ranging from five to 1440 minutes into heparinized vials stored on the chilled fraction collector, and remained there until sampling was complete. Blood samples were processed to plasma via centrifugation and stored at −80° C. until analysis for 2-ME2-PD, 2-ME2 and associated metabolite concentration by liquid chromatography-mass spectrometry (LC-MS/MS). Bioanalytical methods for the 2-ME2-PD and 2-ME2 analysis were modified from those of Lakhani et. al. Quantitation was made relative to deuterated internal standards.
Pharmacokinetic analysis of the resulting plasma concentration time data was performed using PK Solution software (Summit PK). Results for the studies conducted are illustrated in FIG. 1 and Table II (below). For oral doses of 2-ME2, no compound was found in plasma at all time points studied (<2 ng/mL LOQ). All samples from times greater than 480 minutes had 2-ME2 levels that were below the limit of quantitation.

[2] = Reference 13, cited from earlier work
[3] = oxidation of 2-ME2 at the 17 position; References 3, 13 and 19; cited from earlier work
[4] = plasma 2-ME2, 2-ME2-PD intravenous 10 mg/kg
[5] = plasma 2-ME2, 2-ME2-PD oral 20 mg/kg, average of two animals
[6] = plasma 2-ME2, 2-ME2-PD oral 31.5 mg/kg
[7] = plasma 2-ME2, 2-ME2 intravenous 5.21 mg/kg

SMILES: COc1cc2c(cc1OCOP(=O)([O-])[O-])CC[C@@H]1[C@@H]2CC[C@]2(C)[C@@H](OC(C)=O)CC[C@@H]12.[Na+].[Na+] [2-ME2-PD, disodium(((8R,9S,13S,14S,17S)-17-acetoxy-2-methoxy-13-methyl-7,8,9,11,12,13,14,15,16,17-decahydro-6H-cyclopenta[a]phenanthren-3-yl)oxy)methyl phosphate]
- growth of OE33 tumor implants (tumor volume) (OE33 xenografts): significantly inhibited
- Bioavailability ([1]; 2-ME2-PD intravenous 10 mg/kg, relative to 2ME2 iv and corrected for dose): 21.8%
- Bioavailability ([1]; 2-ME2-PD oral 20 mg/kg, relative to 2ME2 iv and corrected for dose, average of two animals): 4.4%
- Bioavailability ([1]; 2-ME2-PD oral 31.5 mg/kg, relative to 2ME2 iv and corrected for dose): 4.9%
- absolute bioavailabilities from oral administration ([1]; oral 2-ME2 prodrug, 0-480 minutes): 4-5%
- Cmax [1, 4]: 121 ng/mL
- T1/2 [1, 4]: 4.37 h
- AUCt-480 ([1]; plasma 2-ME2, 2-ME2-PD intravenous 10 mg/kg (corrected dose 6.06 mg/kg)): 4967 ng·min/mL
- AUCt-480 ([1]; plasma 2-ME2, 2-ME2-PD oral 20 mg/kg (corrected dose 12.13 mg/kg), average of two animals): 2006 ng·min/mL
- Cmax [1, 5]: 8.4 ng/mL
- T1/2 [1, 5]: 13.4 h
- Cmax [1, 6]: 9.9 ng/mL
- T1/2 [1, 6]: 6.85 h
- AUCt-480 ([1]; plasma 2-ME2, 2-ME2-PD oral 31.5 mg/kg (corrected dose 19.11 mg/kg)): 3516 ng·min/mL

SMILES: COc1cc2c(cc1O)CC[C@@H]1[C@@H]2CC[C@]2(C)[C@@H](O)CC[C@@H]12 [2-ME2]
- orally administered dose of 2-ME2 recovered in the urine [2]: ~1%
- fraction of orally administered 2-ME2 dose recovered in the urine as metabolites ([2]; metabolites, animal and human studies): less than 1%
- fraction of orally administered 2-ME2 dose recovered in the urine ([2]; unchanged 2-ME2, animal and human studies): less than 0.1%
- Bioavailability ([1]; 2-ME2 intravenous 5.21 mg/kg (reference)): 100%
- 2-ME2 in plasma at all time points (LOQ) ([1]; oral doses of 2-ME2 (5.21 mg/kg), no compound found): < 2 ng/mL
- AUCt-480 [1, 7]: 19253 ng·min/mL
- Cmax [1, 7]: 1221 ng/mL
- T1/2 [1, 7]: 0.983 h

SMILES: COc1cc2c(cc1O)CC[C@@H]1[C@@H]2CC[C@]2(C)C(=O)CC[C@@H]12 [2-methoxyestrone]
- loss in activity in vitro versus 2-ME2 [3]: 10-to 100 fold

From patent US20120225849A1, “2-Methoxyestradiol (2-ME2) Prodrug with Enhanced Bioavailability for Prophylaxis or Treatment of Cancerous or Non-Cancerous Condition” (The University of Kansas, priority 2011, published 2012)
